By IC50 is commonly meant the concentration that inhibits the measured activity by half.

In this assay the test system is HSV1. It counts as cell-based, Human herpes simplex virus type 1. The following applies: for efficacy for reducing HSV1 infectivity (in words): Examples 2 and 3. As for the experimental part:
African Green Monkey Kidney (Vero) cells were maintained in Eagle's minimum essential medium with Earle's salt (EMEM) and supplemented with 10% foetal calf serum (heat-inactivated), 4 mM L-glutamine, and 1% (v/v) nonessential amino acids, plus penicillin and streptomycin (100 IU/mg and […], respectively) (maintenance medium referred to as 10% EMEM). The cells were incubated at 37° C. in a humidified atmosphere of air with 5% CO2.
On harvesting, monolayers were washed in phosphate-buffered saline (PBS), and dislodged by incubating with trypsin in PBS for 30 min, before inactivating trypsin by addition of an equal volume of 10% EMEM and centrifuging at 500 g (5 min, 4° C.). Cell pellets were resuspended in 10% EMEM, prior to cell counting and seeding of 24-well plates. For antiviral assays, medium containing only 0.5% FCS was used (referred to as 0.5% EMEM).
Three separate passages of HSV1 virus were prepared by infecting Vero cells, and preparing semi-pure suspensions of virus from tissue culture supernatant and cell lysates, before freezing aliquots of virus at −85° C. Viral infectivity was assessed by carrying out plaque assays on serial dilutions of thawed aliquots (expressed in pfu/ml).
Peptides were obtained in lyophilised form from a commercial supplier (AltaBioscience, University of Birmingham or Advanced Biomedical), and were produced at 5 micromole scale. N-terminals were protected by addition of an acetyl group, and the C-terminals were protected by addition of an amide group.
Small quantities of peptide were weighed in sterile Eppendorf tubes, before addition of sufficient 0.5% EMEM to produce a 1.5 mM stock solution, which was frozen at −20° C. in aliquots.
Vero cells were seeded at 125,000 cells per well in 10% EMEM, and were incubated overnight resulting in confluent monolayers. […] Virus stocks (p3) were thawed, and diluted in 0.5% EMEM such that there were around 100 pfu in 100 μl. Each 24-well plate was inoculated separately. Firstly 100 μl of virus stock was added to the peptide or control medium arranged on a 96-well plate. This was incubated at 37° C. for ten minutes before inoculation. Medium was removed from four wells of a 24-well plate containing confluent Vero, and the 200 μl inoculum added to the appropriate well. Once all wells were treated, the 24-well plate was incubated for a further 60-80 minutes. Finally the peptide-containing inoculum was removed, and 1 ml of 1% EMEM containing 1% carboxymethylcellulose was added to each well. Plates were incubated for a further 22 hours or in some experiments 40 hours, before removal of overlay, and addition of 10% formaldehyde in PBS. After a further one hour incubation, fixative was removed, monolayers washed several times with tap water, and stained with carbol fuchsin solubilised in water. After 30 minutes stain was removed, and plates washed several times with tap water, before being air dried. Plaques were counted using an Olympus IX70 Inverting Microscope, and antiviral effect expressed as a percentage of the control value for each peptide concentration. The IC50 was calculated from plots of inhibitory effect against peptide concentration.

Read-outs that look alike come from different tables or passages of the source. Peptide text beside a SMILES is read from it. Where only a bound is given, the exact number is not on record here.

Turning to `CC[C@H](C)[C@H](NC(=O)[C@@H](NC(=O)[C@H](CCCNC(=N)N)NC(=O)[C@H](CCCCN)NC(=O)[C@H](CCCNC(=N)N)NC(=O)[C@@H](NC(=O)[C@H](CCCCN)NC(=O)[C@H](CCCNC(=N)N)NC(=O)[C@@H](NC(=O)[C@@H](NC(=O)[C@@H](NC(=O)[C@H](CCCNC(=N)N)NC(=O)[C@H](CCCCN)NC(=O)[C@H](CCCNC(=N)N)NC(=O)[C@@H](NC(=O)[C@H](CCCCN)NC(=O)[C@H](CCCNC(=N)N)NC(=O)[C@@H](NC(C)=O)[C@@H](C)CC)[C@@H](C)CC)[C@@H](C)CC)[C@@H](C)CC)[C@@H](C)CC)[C@@H](C)CC)[C@@H](C)CC)C(N)=O` [MU 8] (Ac-IRKIRKRIIIRKIRKRII-NH2), the IC50 is over 30 µM.
Consider `CC(=O)N[C@@H](CCCCN)C(=O)N[C@@H](CCCNC(=N)N)C(=O)N[C@@H](CCCCN)C(=O)N[C@@H](CCCCN)C(=O)N[C@@H](CCCNC(=N)N)C(=O)N[C@@H](CCCCN)C(=O)N[C@@H](CCCNC(=N)N)C(=O)N[C@@H](CCCCN)C(=O)N[C@@H](CCCCN)C(=O)N[C@@H](CCCCN)C(=O)N[C@@H](CCCNC(=N)N)C(=O)N[C@@H](CCCCN)C(=O)N[C@@H](CCCCN)C(=O)N[C@@H](CCCNC(=N)N)C(=O)N[C@@H](CCCCN)C(=O)N[C@@H](CCCNC(=N)N)C(=O)N[C@@H](CCCCN)C(=O)N[C@@H](CCCCN)C(N)=O` [MU 18] (Ac-KRKKRKRKKKRKKRKRKK-NH2), for which it took 7.5 µM to reach half-maximal inhibition (IC50).
The compound `CC(=O)N[C@@H](CCC(N)=O)C(=O)N[C@@H](CCCNC(=N)N)C(=O)N[C@@H](CCCCN)C(=O)N[C@@H](CCC(N)=O)C(=O)N[C@@H](CCCNC(=N)N)C(=O)N[C@@H](CCCCN)C(=O)N[C@@H](CCCNC(=N)N)C(=O)N[C@@H](CCC(N)=O)C(=O)N[C@@H](CCC(N)=O)C(=O)N[C@@H](CCC(N)=O)C(=O)N[C@@H](CCCNC(=N)N)C(=O)N[C@@H](CCCCN)C(=O)N[C@@H](CCC(N)=O)C(=O)N[C@@H](CCCNC(=N)N)C(=O)N[C@@H](CCCCN)C(=O)N[C@@H](CCCNC(=N)N)C(=O)N[C@@H](CCC(N)=O)C(=O)N[C@@H](CCC(N)=O)C(N)=O` [MU 9] (Ac-QRKQRKRQQQRKQRKRQQ-NH2) registered a half-maximal inhibitory concentration (IC50) of over 30 µM.
Still for that read-out and setting: next, `CC(=O)N[C@@H](Cc1c[nH]c2ccccc12)C(=O)N[C@@H](CCCNC(=N)N)C(=O)N[C@@H](CCCCN)C(=O)N[C@@H](Cc1c[nH]c2ccccc12)C(=O)N[C@@H](CCCNC(=N)N)C(=O)N[C@@H](CCCCN)C(=O)N[C@@H](CCCNC(=N)N)C(=O)N[C@@H](Cc1c[nH]c2ccccc12)C(=O)N[C@@H](Cc1c[nH]c2ccccc12)C(=O)N[C@@H](CCCNC(=N)N)C(=O)N[C@@H](CCCCN)C(=O)N[C@@H](Cc1c[nH]c2ccccc12)C(=O)N[C@@H](CCCNC(=N)N)C(=O)N[C@@H](CCCCN)C(=O)N[C@@H](CCCNC(=N)N)C(=O)N[C@@H](Cc1c[nH]c2ccccc12)C(=O)N[C@@H](Cc1c[nH]c2ccccc12)C(N)=O` [MU 58] (Ac-WRKWRKRWWRKWRKRWW-NH2): 4.25 µM; `CSCC[C@H](NC(=O)[C@H](CCSC)NC(=O)[C@H](CCCNC(=N)N)NC(=O)[C@H](CCCCN)NC(=O)[C@H](CCCNC(=N)N)NC(=O)[C@H](CCSC)NC(=O)[C@H](CCCCN)NC(=O)[C@H](CCCNC(=N)N)NC(=O)[C@H](CCSC)NC(=O)[C@H](CCSC)NC(=O)[C@H](CCSC)NC(=O)[C@H](CCCNC(=N)N)NC(=O)[C@H](CCCCN)NC(=O)[C@H](CCCNC(=N)N)NC(=O)[C@H](CCSC)NC(=O)[C@H](CCCCN)NC(=O)[C@H](CCCNC(=N)N)NC(=O)[C@H](CCSC)NC(C)=O)C(N)=O` [GIN 40] (Ac-MRKMRKRMMMRKMRKRMM-NH2): over 30 µM.
The same measure, in the same setting: for `CC(=O)N[C@@H](Cc1c[nH]c2ccccc12)C(=O)N[C@@H](CCCNC(=N)N)C(=O)N[C@@H](CCCCN)C(=O)N[C@@H](Cc1c[nH]c2ccccc12)C(=O)N[C@@H](CCCNC(=N)N)C(=O)N[C@@H](CCCCN)C(=O)N[C@@H](Cc1ccccc1)C(=O)N[C@@H](Cc1ccccc1)C(=O)N[C@@H](Cc1ccccc1)C(=O)N[C@@H](CCCNC(=N)N)C(=O)N[C@@H](CCCCN)C(=O)N[C@@H](Cc1c[nH]c2ccccc12)C(=O)N[C@@H](CCCNC(=N)N)C(=O)N[C@@H](CCCCN)C(=O)N[C@@H](CCCNC(=N)N)C(=O)N[C@@H](Cc1c[nH]c2ccccc12)C(=O)N[C@@H](Cc1c[nH]c2ccccc12)C(N)=O` [MU 116] (Ac-WRKWRKFFFRKWRKRWW-NH2) the value was 3.3 µM.
For the compound `CC(=O)N[C@@H](Cc1c[nH]c2ccccc12)C(=O)N[C@@H](CCCNC(=N)N)C(=O)N[C@@H](CCCCN)C(=O)N[C@@H](Cc1c[nH]c2ccccc12)C(=O)N[C@@H](CCCNC(=N)N)C(=O)N[C@@H](CCCCN)C(=O)N[C@@H](CCCNC(=N)N)C(=O)N[C@@H](Cc1c[nH]c2ccccc12)C(=O)N[C@@H](Cc1ccccc1)C(=O)N[C@@H](Cc1ccccc1)C(=O)N[C@@H](CCCNC(=N)N)C(=O)N[C@@H](CCCCN)C(=O)N[C@@H](Cc1c[nH]c2ccccc12)C(=O)N[C@@H](CCCNC(=N)N)C(=O)N[C@@H](CCCCN)C(=O)N[C@@H](CCCNC(=N)N)C(=O)N[C@@H](Cc1ccccc1)C(=O)N[C@@H](Cc1ccccc1)C(N)=O` [MU 61] (Ac-WRKWRKRWFFRKWRKRFF-NH2), half-maximal inhibition (IC50) required 4.75 µM.
In the case of `CC(=O)N[C@@H](CC(C)C)C(=O)N[C@@H](CCCNC(=N)N)C(=O)N[C@@H](CCCCN)C(=O)N[C@@H](CC(C)C)C(=O)N[C@@H](CCCNC(=N)N)C(=O)N[C@@H](CCCCN)C(=O)N[C@@H](CC(C)C)C(=O)N[C@@H](CCCNC(=N)N)C(=O)N[C@@H](CCCCN)C(=O)N[C@@H](CC(C)C)C(=O)N[C@@H](CCCNC(=N)N)C(=O)N[C@@H](CCCCN)C(=O)N[C@@H](CC(C)C)C(=O)N[C@@H](CCCNC(=N)N)C(=O)N[C@@H](CCCCN)C(=O)N[C@@H](CC(C)C)C(=O)N[C@@H](CCCNC(=N)N)C(=O)N[C@@H](CCCCN)C(N)=O` [GIN 9] (Ac-LRKLRKLRKLRKLRKLRK-NH2), the IC50 turned out to be 15.5 µM and the “efficacy for reducing HSV1 infectivity (in words)” value is listed as “had efficacy”.
Turning to `CC(=O)N[C@@H](CC(=O)O)C(=O)N[C@@H](Cc1c[nH]c2ccccc12)C(=O)N[C@@H](CC(C)C)C(=O)N[C@@H](CCCCN)C(=O)N[C@@H](C)C(=O)N[C@@H](Cc1ccccc1)C(=O)N[C@@H](Cc1ccc(O)cc1)C(=O)N[C@@H](CC(=O)O)C(=O)N[C@@H](CCCCN)C(=O)N[C@H](C(=O)N[C@@H](C)C(=O)N[C@@H](CCC(=O)O)C(=O)N[C@@H](CCCCN)C(=O)N[C@@H](CC(C)C)C(=O)N[C@@H](CCCCN)C(=O)N[C@@H](CCC(=O)O)C(=O)N[C@@H](C)C(=O)N[C@@H](Cc1ccccc1)C(N)=O)C(C)C` [GIN 22] (Ac-DWLKAFYDKVAEKLKEAF-NH2), the IC50 reads like this: (HSV1, Vero cells, Table 5 (Example 2), read-out: Apparent IC50) 36 µM; (HSV-1, Vero cells, Table 6 (Example 3), read-out: IC50) 36 µM.
Turning to `CC(=O)N[C@@H](Cc1c[nH]c2ccccc12)C(=O)N[C@@H](CCCNC(=N)N)C(=O)N[C@@H](CCCCN)C(=O)N[C@@H](Cc1c[nH]c2ccccc12)C(=O)N[C@@H](CCCNC(=N)N)C(=O)N[C@@H](CCCCN)C(=O)N[C@@H](CCCNC(=N)N)C(=O)N[C@@H](Cc1c[nH]c2ccccc12)C(=O)N[C@@H](Cc1c[nH]c2ccccc12)C(=O)N[C@@H](Cc1ccccc1)C(=O)N[C@@H](CCCNC(=N)N)C(=O)N[C@@H](CCCCN)C(=O)N[C@@H](Cc1ccccc1)C(=O)N[C@@H](CCCNC(=N)N)C(=O)N[C@@H](CCCCN)C(=O)N[C@@H](CCCNC(=N)N)C(=O)N[C@@H](Cc1ccccc1)C(=O)N[C@@H](Cc1ccccc1)C(N)=O` [MU 117] (Ac-WRKWRKRWWFRKFRKRFF-NH2), the half-inhibitory concentration (IC50) is 3.3 µM.
On to `CC(=O)N[C@@H](CC(C)C)C(=O)N[C@@H](CCCNC(=N)N)C(=O)N[C@@H](CCCCN)C(=O)N[C@@H](CC(C)C)C(=O)N[C@@H](CCCNC(=N)N)C(=O)N[C@@H](CCCCN)C(=O)N[C@@H](CCCNC(=N)N)C(=O)N[C@@H](CC(C)C)C(=O)N[C@@H](CCCNC(=N)N)C(=O)N[C@@H](CCCCN)C(=O)N[C@@H](CC(C)C)C(=O)N[C@@H](CCCNC(=N)N)C(=O)N[C@@H](CCCCN)C(=O)N[C@@H](CCCNC(=N)N)C(N)=O` [GIN 8] (Ac-LRKLRKRLRKLRKR-NH2), for which half-maximal inhibition (IC50) required 13 µM and the “efficacy for reducing HSV1 infectivity (in words)” value is given as “had efficacy”.

For the origin of these results see patent US7691382B2, “Antiviral polypeptides comprising tandem repeats of APOE 141-149 and variants thereof” (priority 2003, dated 2010).
